Tests used:
Type in all cases: binding
[1] = oBBV-HPTS two component fluorescence assay, sucralose
Method: (§1) Urine has been analyzed for the permeability markers sucrose (stomach), lactulose and mannitol (small intestine) and sucralose (colon). The viologen oBBV was used with the fluorophore HPTS (Exc. 420 or 485 nm, Em 535 nm). Fluorescence was measured with a benchtop plate reader. HPTS is normally read at 420/535 nm, but performs well at 485/535 nm, matching FITC filter sets normally found in clinical labs. […] Lower limit of quantification (LLOQ) and dynamic range are suitable for typical urine samples.
(§2) Developing a degradation pathway of sucralose into a saccharide that consists of the hydroxyl groups is needed for boronic acid recognition, which allows for the molecular recognition of sucralose. Sucralose contains halogenated carbons, which are easily modified via a hydroxyl anion or radical to de-chlorinate sucralose to form a detectable saccharide. Based on literature precedence, sucralose is modified through advanced oxidation photolysis to generate a fructose sugar alcohol derivative of sucrose (Ref 38). […] This has been accomplished by generating hydroxyl anion and radicals via the Fenton chemical reaction (Ref 39) in the presence of sucralose, and upon reaction completion, the modified sucralose solution was tested against the oBBV-HPTS system. Using the disclosed two component system, it is confirmed that sucralose is modified.

[2] = oBBV-HPTS two component fluorescence assay, Fenton-modified sucralose; details: sucralose after Fenton reaction, 1 hr; sodium phosphate and HEPES buffer, 0.01% Triton-X100, pH 7.4 (FIG. 4)
Method: FIG. 4 is a graph showing the results of a proof of concept experiment to measure modified sucralose after 1 hr of reaction time. This study was performed with ortho bis boronic acid viologen (oBBV) in sodium phosphate and HEPES buffer 0.1M containing 0.01% Triton-X100, pH 7.4. The fluorescence intensity is the normalized intensity where F=fluorescence intensity after saccharide addition and Fo=fluorescence intensity of the quenched reporter dye.
Developing a degradation pathway of sucralose into a saccharide that consists of the hydroxyl groups is needed for boronic acid recognition, which allows for the molecular recognition of sucralose. […]
This has been accomplished by generating hydroxyl anion and radicals via the Fenton chemical reaction (Ref 39) in the presence of sucralose, and upon reaction completion, the modified sucralose solution was tested against the oBBV-HPTS system. Using our two component system, we have confirmed that sucralose can be modified and measured by adding increasing amounts of this modified saccharide, a significant fluorescence signal was obtained.
A solution of sucralose (20 mM) in the presence of ferrous iron (II) sulfate and hydrogen peroxide was allowed to stir for 1 hour and dilutions were made to determine if a fluorescence signal can be obtained. […]

[3] = oBBV-HPTS two component fluorescence assay, mannitol
Excerpt: (§3) Boronic acids form covalent bonds with the cis-1, 2-hydroxyl groups that are commonly found in saccharides. Based on this property, a two-component sensing system is developed, comprising a fluorescent dye that serves as the indicator unit and a boronic acid-appended viologen that serves a dual function as fluorescence quencher and saccharide receptor. Dye and viologen form a non-fluorescent ground state complex. Binding to a diol weakens the complex. Subsequent dissociation from the fluorescent dye results in an increase in fluorescence dependent on diol concentration.
as §1

[4] = oBBV-HPTS two component fluorescence assay, lactulose
Excerpt: as §3, §1

[5] = oBBV-HPTS two component fluorescence assay, sucrose
Method: as §1, §2

[6] = fluorophore HPTS, urine, Exc. 420 or 485 nm, Em 535 nm (FIG. 3)

Compound: OB(O)c1ccccc1C[n+]1ccc(-c2cc[n+](Cc3ccccc3B(O)O)cc2)cc1.[Br-].[Br-] [oBBV, 4,4′-N,N′-bis-(benzyl-2-boronic acid)-dipyridinium dibromide]
- fluorescence signal with sucralose ([1]; unmodified, tested in parallel with modified sucralose (FIG. 4)): no obtainable signal
- de-quenching of HPTS fluorescence in the presence of sucralose ([1]; urine (FIG. 3)): not
- fluorescence signal on adding increasing amounts of modified sucralose [2]: increase in fluorescence signal
- sensitivity to mannitol [3, 6]: good sensitivity
- de-quenching of HPTS fluorescence in the presence of mannitol ([3]; urine (FIG. 3)): selectively de-quenched
- sensitivity to lactulose [4, 6]: greatest preferential sensitivity
- de-quenching of HPTS fluorescence in the presence of lactulose ([4]; urine (FIG. 3)): selectively de-quenched
- fluorescence signal with sucrose ([5]; tested in parallel with modified sucralose (FIG. 4)): no obtainable signal
- de-quenching of HPTS fluorescence in the presence of sucrose ([5]; urine (FIG. 3)): not
